In publication PMC4274986 (Journal of Molecular Recognition, 2014):

Test system: Streptavidin-R-phycoerythrin (SAPE)
Format: binding

FTSSPSKHPQVEAGV [R441] was tested, and the “SAPE binding median fluorescence vs unlabeled controls” value was “comparable to the unlabeled controls”.
